Reference: patent publication US20240262803A1, “COMPOUNDS, COMPOSITIONS AND METHODS OF TREATING DISORDERS” (Chungdu Anticancer Bioscience Ltd, priority 2021, published 2024)
Like-named read-outs stand apart in the source and are kept apart here.

Tests used:
Format in all cases: cell-based
[1] = test system: gastric cancer cell line NCI-N87; assay: MTT assay of cellular proliferation, NCI-N87; settings: Homo sapiens, read-out: EC50: Concentration that inhibits 50% of proliferation
Method in brief: (§1)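 Proliferation inhibition was scored by MTT reduction to formazan (A570) in cells cultured in 5% FBS DMEM at 37 °C. Dose range spanned 1 nM to 10 μM, with EC50 defined as 50% inhibition.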

[2] = test system: liver cancer cell line T2 HCC; assay: Minimal effective concentration that elicits polyploidy, T2 HCC; settings: Mus musculus, read-out: MECP: Minimal effective concentration that elicits polyploidy
[3] = test system: breast cancer cell line MDA-MB-231; assay: MTT assay of cellular proliferation, MDA-MB-231; settings: Homo sapiens, read-out: EC50: Concentration that inhibits 50% of proliferation
Method in brief: as §1

[4] = test system: colon cancer cell line HCT116; assay: Minimal effective concentration that elicits polyploidy, HCT116; settings: Homo sapiens, HCT-116, read-out: MECP: Minimal effective concentration that elicits polyploidy
[5] = test system: RPEMYC^H2B-GFP cells; assay: Mechanism-informed phenotypic screening assay (mitotic arrest, polyploidy; GE IN-Cell Analyzer 2000); settings: 20 nM to 20 μM, 24, 48 or 72 hours, read-out: Mitotic Arrest (≥5%)
[6] = test system: lung cancer cell line A549; assay: Minimal effective concentration that elicits polyploidy, A549; settings: Homo sapiens, read-out: MECP: Minimal effective concentration that elicits polyploidy
[7] = test system: cervical cancer cell line Hela; assay: Minimal effective concentration that elicits polyploidy, Hela; settings: Homo sapiens, read-out: MECP: Minimal effective concentration that elicits polyploidy
[8] = test system: lung cancer cell line A549; assay: MTT assay of cellular proliferation, A549; settings: Homo sapiens, read-out: EC50: Concentration that inhibits 50% of proliferation
Method in brief: as §1

[9] = test system: lung cancer cell line NCI-H23; assay: Minimal effective concentration that elicits polyploidy, NCI-H23; settings: Homo sapiens, read-out: MECP: Minimal effective concentration that elicits polyploidy
[10] = test system: gastric cancer cell line NCI-N87; assay: Minimal effective concentration that elicits polyploidy, NCI-N87; settings: Homo sapiens, read-out: MECP: Minimal effective concentration that elicits polyploidy
[11] = test system: colon cancer cell line SW460; assay: MTT assay of cellular proliferation, SW460; settings: Homo sapiens, SW480; read-out: EC50: Concentration that inhibits 50% of proliferation
Method in brief: as §1

[12] = test system: lung cancer cell line NCI-H23; assay: MTT assay of cellular proliferation, NCI-H23; settings: Homo sapiens, read-out: EC50: Concentration that inhibits 50% of proliferation
Method in brief: as §1

[13] = test system: breast cancer cell line MDA-MB-231; assay: Minimal effective concentration that elicits polyploidy, MDA-MB-231; settings: Homo sapiens, read-out: MECP: Minimal effective concentration that elicits polyploidy
[14] = test system: colon cancer cell line HCT116; assay: MTT assay of cellular proliferation, HCT116; settings: Homo sapiens, HCT-116, read-out: EC50: Concentration that inhibits 50% of proliferation
Method in brief: as §1

[15] = test system: SW480; assay: Minimal effective concentration that elicits polyploidy, SW480; settings: Homo sapiens, read-out: MECP: Minimal effective concentration that elicits polyploidy
[16] = test system: cervical cancer cell line Hela; assay: MTT assay of cellular proliferation, Hela; settings: Homo sapiens, read-out: EC50: Concentration that inhibits 50% of proliferation
Method in brief: as §1

[17] = test system: RPEMYC^H2B-GFP cells; assay: Mechanism-informed phenotypic screening assay (mitotic arrest, polyploidy; GE IN-Cell Analyzer 2000); settings: 20 nM to 20 μM, 24, 48 or 72 hours, read-out: Min. Effective conc. for polyploidy (≥5%)
Method in brief: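 RPEMYC^H2B-GFP cells expressing Histone 2B-EGFP were treated with compounds at 20 nM to 20 μM. Mitotic arrest and DNA content were imaged at 24, 48 or 72 h. Minimal effective concentrations eliciting polyploidy are given as letter bins.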

[18] = test system: liver cancer cell line T2 HCC; assay: MTT assay of cellular proliferation, T2 HCC; settings: Mus musculus, read-out: EC50: Concentration that inhibits 50% of proliferation
Method in brief: as §1

Row | SMILES | EC50 [1] [nM] | minimal effective concentration [2] [µM] | EC50 [3] [nM] | minimal effective concentration [4] [µM] | minimal effective concentration [5] [µM] | minimal effective concentration [6] [µM] | minimal effective concentration [7] [µM] | EC50 [8] [nM] | minimal effective concentration [9] [µM] | minimal effective concentration [10] [µM] | EC50 [11] [nM] | EC50 [12] [nM] | minimal effective concentration [13] [µM] | EC50 [14] [nM] | minimal effective concentration [15] [µM] | EC50 [16] [nM] | minimal effective concentration [17] [µM] | EC50 [18] [nM]
1 | CNC(=O)c1cc(Oc2ncccc2-c2ccnc(C)c2)cc(OC(F)(F)F)c1 [Compound 39, N-methyl-3-((2′-methyl-[3,4′-bipyridin]-2-yl)oxy)-5-(trifluoromethoxy)benzamide] | 1 to 1000 | 0.001 to 1 | 1 to 1000 | 0.001 to 1 | 1 | 0.001 to 1 | 0.001 to 1 | 1 to 1000 | 0.001 to 1 | 0.001 to 1 | 1 to 1000 | 1 to 1000 | 0.001 to 1 | 1 to 1000 | 0.001 to 1 | 1 to 1000 | 1 | 1 to 1000
2 | COc1cc(Oc2ncccc2-c2ccnc(C)c2)cc(C(F)(F)F)c1 [Compound 40, 2-(3-methoxy-5-(trifluoromethyl)phenoxy)-2′-methyl-3,4′-bipyridine] | 1 to 1000 | 0.001 to 1 | 1 to 1000 | 0.001 to 1 | 1 | 0.001 to 1 | 0.001 to 1 | 1 to 1000 | 0.001 to 1 | 0.001 to 1 | 1 to 1000 | 1 to 1000 | 0.001 to 1 | 1 to 1000 | 0.001 to 1 | 1 to 1000 | 1 | 1 to 1000
3 | COc1cc(Oc2ncccc2-c2ccnc(C)c2)cc(-n2cccn2)c1 [Compound 41, 2-(3-methoxy-5-(1H-pyrazol-1-yl)phenoxy)-2′-methyl-3,4′-bipyridine] | 1 to 1000 | 0.001 to 1 | 1 to 1000 | 0.001 to 1 | 1 | 0.001 to 1 | 0.001 to 1 | 1 to 1000 | 0.001 to 1 | 0.001 to 1 | 1 to 1000 | 1 to 1000 | 0.001 to 1 | 1 to 1000 | 0.001 to 1 | 1 to 1000 | 1 | 1 to 1000
4 | COc1cc(OC)cc(Oc2ncccc2-c2ccnc(C)c2)c1 [Compound 42, 2-(3,5-dimethoxyphenoxy)-2′-methyl-3,4′-bipyridine] | 1 to 1000 | 0.001 to 1 | 1 to 1000 | 0.001 to 1 | 1 | 0.001 to 1 | 0.001 to 1 | 1 to 1000 | 0.001 to 1 | 0.001 to 1 | 1 to 1000 | 1 to 1000 | 0.001 to 1 | 1 to 1000 | 0.001 to 1 | 1 to 1000 | 1 | 1 to 1000
